Data on 30 compounds can be found in patent publication US20230406843A1, “Progranulin Modulators and Methods of Using the Same” (ARKUDA THERAPEUTICS, priority 2020, published 2023).

pEC50: −log10 of the molar value. A value given as a limit tells only on which side of the number the result lay.

The test system of the first test is progranulin. Put plainly: Progranulin induction cellular assay (ELISA of secreted mouse PGRN). It is filed as cell-based. Particulars: Mus musculus, BV-2, read-out: EC50 μM. As for the experimental part: Cellular Assays: Progranulin induction assay. To measure the efficacy of compounds, a progranulin induction cellular assay in mouse primary microglia (pMG), primary cortical neurons, and BV-2 cell lines is used. BV-2 cells are split the day before plating into a 96 well plate format at approximately 80%. Cells should be plated the day before and allowed for 1 hour attachment period and for 16 hour incubation. Levels of progranulin secreted into the cell culture medium or retained in the cell lysate can be quantified using an ELISA-based readout and measurement of secreted mouse PGRN in the medium was assessed by the methodology published by Ghidoni et al. 2012. Standard ELISA kits to measure PGRN are available from vendors such as Adipogen, R&D, and Biovendor.
Table B below presents the results of a progranulin induction assay as described above.
(An ELISA detects its analyte on a solid surface through an enzyme-linked reagent.)
Consider `CCNC[C@]1(O)CO[C@H](C(=O)N2CCc3ccccc3[C@@H]2c2ccc(F)cc2)C1` [Compound 5024, ((2S,4S)-4-((ethylamino)methyl)-4-hydroxytetrahydrofuran-2-yl)((S)-1-(4-fluorophenyl)-3,4-dihydroisoquinolin-2(1H)-yl)methanone], for which the EC50 was 0.749 µM.
On the same count and under the same terms, then `CCNC[C@@]1(O)CO[C@H](C(=O)N2CCc3ccccc3[C@@H]2c2ccc(F)cc2)C1` [Compound 5031, ((2S,4R)-4-((ethylamino)methyl)-4-hydroxytetrahydrofuran-2-yl)((S)-1-(4-fluorophenyl)-3,4-dihydroisoquinolin-2(1H)-yl)methanone], with 0.326 µM.

Still in this test, the particulars now being: progranulin induction assay; mouse pMG, primary cortical neurons and BV-2 cell lines named, cell type not given; ELISA-based readout; read-out: EC50.
`CC[N-][S@@+2](C)([O-])[C@H]1CO[C@@H](C(=O)N2CCc3ccccc3[C@@H]2c2ccc(F)cc2)C[C@@H]1N` (single isomer, unassigned) [Compound 5557]: the pEC50 was 6.28.
Still for that read-out and setting: the value for `CC[N-][S@+2](C)([O-])[C@H]1CO[C@@H](C(=O)N2CCc3ccccc3[C@@H]2c2ccc(F)cc2)C[C@@H]1N` (single isomer, unassigned) [Compound 5558] was 6.51.
Take `NCC1COC(C(=O)N2CCc3ccccc3[C@@H]2c2ccc(F)cc2)C1` (stereo in doubt) [Compound 5008, ((2S,4S)-4-(aminomethyl)tetrahydrofuran-2-yl)((S)-1-(4-fluorophenyl)-3,4-dihydroisoquinolin-2(1H)-yl)methanone]: the negative-log EC50 (pEC50) was 6.43.
Consider `NCC1COC(C(=O)N2CCc3ccccc3[C@@H]2c2ccc(F)cc2)C1` (stereo in doubt) [Compound 5009, ((2S,4R)-4-(aminomethyl)tetrahydrofuran-2-yl)((S)-1-(4-fluorophenyl)-3,4-dihydroisoquinolin-2(1H)-yl)methanone], for which the pEC50 was 6.43.
On the same count and under the same terms, the value for `N[C@H]1COC(C(=O)N2CCc3ccccc3[C@@H]2c2ccc(F)cc2)C1` (stereo in doubt) [Compound 5010, ((2S,4R)-4-aminotetrahydrofuran-2-yl)((S)-1-(4-fluorophenyl)-3,4-dihydroisoquinolin-2(1H)-yl)methanone] was 6.24; that for `N[C@@H]1COC(C(=O)N2CCc3ccccc3[C@@H]2c2ccc(F)cc2)C1` (stereo in doubt) [Compound 5011, ((2S,4S)-4-aminotetrahydrofuran-2-yl)((S)-1-(4-fluorophenyl)-3,4-dihydroisoquinolin-2(1H)-yl)methanone] was 5.78.
On the same count and under the same terms, then `N[C@H]1COC(C(=O)N2CCc3ccccc3[C@@H]2c2ccc(F)cc2)C1` (stereo in doubt) [Compound 5012, ((2R,4R)-4-aminotetrahydrofuran-2-yl)((S)-1-(4-fluorophenyl)-3,4-dihydroisoquinolin-2(1H)-yl)methanone], with 6.90; and `N[C@@H]1COC(C(=O)N2CCc3ccccc3[C@@H]2c2ccc(F)cc2)C1` (stereo in doubt) [Compound 5013, ((2R,4S)-4-aminotetrahydrofuran-2-yl)((S)-1-(4-fluorophenyl)-3,4-dihydroisoquinolin-2(1H)-yl)methanone], with 6.49; and `NC1CCC(C(=O)N2CCc3ccccc3[C@@H]2c2ccc(F)cc2F)OC1` (stereo in doubt) [Compound 5018, ((2R,5S)-5-aminotetrahydro-2H-pyran-2-yl)((R)-1-(2,4-difluorophenyl)-3,4-dihydroisoquinolin-2(1H)-yl)methanone], with less than 5.00.
Same read-out and setting: then `N[C@@]12CC[C@@](C(=O)N3CCc4ccccc4C3c3ccc(F)cc3)(C1)OC2` (stereo in doubt) [Compound 5020, (4-amino-2-oxabicyclo[2.2.1]heptan-1-yl)((S)-1-(4-fluorophenyl)-3,4-dihydroisoquinolin-2(1H)-yl)methanone], with 5.97; and `N[C@@]12CC[C@@](C(=O)N3CCc4ccccc4[C@H]3c3ccc(F)cc3)(C1)OC2` (stereo in doubt) [Compound 5022, (4-amino-2-oxabicyclo[2.2.1]heptan-1-yl)((S)-1-(4-fluorophenyl)-3,4-dihydroisoquinolin-2(1H)-yl)methanone], with 5.38.
As to `NCC1(O)CCO[C@@H](C(=O)N2CCc3ccccc3[C@@H]2c2ccc(F)cc2)C1` (stereo in doubt) [Compound 5540, ((2R,4R)-4-(aminomethyl)-4-hydroxytetrahydro-2H-pyran-2-yl)((S)-1-(4-fluorophenyl)-3,4-dihydroisoquinolin-2(1H)-yl)methanone], the pEC50 was 6.68.
On the same count and under the same terms, then `NC[C@@H]1CC[C@H](C(=O)N2CCc3ccccc3[C@@H]2c2ccc(F)cc2)O1` [Compound 5000, ((2R,5S)-5-(aminomethyl)tetrahydrofuran-2-yl)((S)-1-(4-fluorophenyl)-3,4-dihydroisoquinolin-2(1H)-yl)methanone], with 6.39.
Same read-out and setting: then `NC[C@H]1CC[C@@H](C(=O)N2CCc3ccccc3[C@@H]2c2ccc(F)cc2)O1` [Compound 5001, ((2S,5R)-5-(aminomethyl)tetrahydrofuran-2-yl)((S)-1-(4-fluorophenyl)-3,4-dihydroisoquinolin-2(1H)-yl)methanone], with 6.61; and `NC[C@H]1CC[C@H](C(=O)N2CCc3ccccc3[C@@H]2c2ccc(F)cc2)O1` [Compound 5002, ((2R,5R)-5-(aminomethyl)tetrahydrofuran-2-yl)((S)-1-(4-fluorophenyl)-3,4-dihydroisoquinolin-2(1H)-yl)methanone], with 6.56; and `NC[C@@H]1CC[C@@H](C(=O)N2CCc3ccccc3[C@@H]2c2ccc(F)cc2)O1` [Compound 5003, ((2S,5S)-5-(aminomethyl)tetrahydrofuran-2-yl)((S)-1-(4-fluorophenyl)-3,4-dihydroisoquinolin-2(1H)-yl)methanone], with 6.29.
Regarding `COCCN[C@H]1CC[C@@H](C(=O)N2CCc3ccccc3[C@@H]2c2ccc(F)cc2)OC1` [Compound 5029, ((S)-1-(4-fluorophenyl)-3,4-dihydroisoquinolin-2(1H)-yl)((2S,5S)-5-((2-methoxyethyl)amino)tetrahydro-2H-pyran-2-yl)methanone], the negative-log EC50 (pEC50) was 6.43.
Still for that read-out and setting: the value for `COCCN[C@H]1CC[C@H](C(=O)N2CCc3ccccc3[C@@H]2c2ccc(F)cc2)OC1` [Compound 5030, ((S)-1-(4-fluorophenyl)-3,4-dihydroisoquinolin-2(1H)-yl)((2R,5S)-5-((2-methoxyethyl)amino)tetrahydro-2H-pyran-2-yl)methanone] was 6.46; that for `O=C([C@@H]1CC[C@@H](NCCO)CO1)N1CCc2ccccc2[C@@H]1c1ccc(F)cc1` [Compound 5032, ((S)-1-(4-fluorophenyl)-3,4-dihydroisoquinolin-2(1H)-yl)((2S,5R)-5-((2-hydroxyethyl)amino)tetrahydro-2H-pyran-2-yl)methanone] was 6.67.
Regarding `O=C([C@@H]1CC[C@H](NCCO)CO1)N1CCc2ccccc2[C@@H]1c1ccc(F)cc1` [Compound 5033, ((S)-1-(4-fluorophenyl)-3,4-dihydroisoquinolin-2(1H)-yl)((2S,5S)-5-((2-hydroxyethyl)amino)tetrahydro-2H-pyran-2-yl)methanone], the pEC50 was 6.79.
Same read-out and setting: then `O=C([C@H]1CC[C@H](NCCO)CO1)N1CCc2ccccc2[C@@H]1c1ccc(F)cc1` [Compound 5034, ((S)-1-(4-fluorophenyl)-3,4-dihydroisoquinolin-2(1H)-yl)((2R,5S)-5-((2-hydroxyethyl)amino)tetrahydro-2H-pyran-2-yl)methanone], with 6.73; and `COCCN[C@@H]1CC[C@@H](C(=O)N2CCc3ccccc3[C@@H]2c2ccc(F)cc2)OC1` [Compound 5035, ((S)-1-(4-fluorophenyl)-3,4-dihydroisoquinolin-2(1H)-yl)((2S,5R)-5-((2-methoxyethyl)amino)tetrahydro-2H-pyran-2-yl)methanone], with 6.43.
Same read-out and setting: then `CCNC[C@]1(O)CO[C@@H](C(=O)N2CCc3ccccc3[C@@H]2c2ccc(F)cc2)C1` [Compound 5036, ((2R,4S)-4-((ethylamino)methyl)-4-hydroxytetrahydrofuran-2-yl)((S)-1-(4-fluorophenyl)-3,4-dihydroisoquinolin-2(1H)-yl)methanone], with 6.45; and `CCNC[C@@]1(O)CO[C@@H](C(=O)N2CCc3ccccc3[C@@H]2c2ccc(F)cc2)C1` [Compound 5037, ((2R,4R)-4-((ethylamino)methyl)-4-hydroxytetrahydrofuran-2-yl)((S)-1-(4-fluorophenyl)-3,4-dihydroisoquinolin-2(1H)-yl)methanone], with 6.47; and `O=C([C@H]1C[C@](O)(CNCCO)CO1)N1CCc2ccccc2[C@@H]1c1ccc(F)cc1` [Compound 5041, ((S)-1-(4-fluorophenyl)-3,4-dihydroisoquinolin-2(1H)-yl)((2R,4S)-4-hydroxy-4-(((2-hydroxyethyl)amino)methyl)tetrahydrofuran-2-yl)methanone], with 6.53.
Consider `N[C@H]1CO[C@H](C(=O)N2CCc3ccccc3[C@@H]2c2ccc(F)cc2)C[C@H]1O` [Compound 5043, ((2S,4R,5S)-5-amino-4-hydroxytetrahydro-2H-pyran-2-yl)((S)-1-(4-fluorophenyl)-3,4-dihydroisoquinolin-2(1H)-yl)methanone], for which the negative-log EC50 (pEC50) was 7.19.
Same read-out and setting: the value for `N[C@H]1CO[C@H](C(=O)N2CCc3ccccc3[C@@H]2c2ccc(F)cc2)OC1` [Compound 5048, (trans-5-amino-1,3-dioxan-2-yl)((S)-1-(4-fluorophenyl)-3,4-dihydroisoquinolin-2(1H)-yl)methanone] was 6.24; that for `N[C@H]1CO[C@@H](C(=O)N2CCc3ccccc3[C@@H]2c2ccc(F)cc2)OC1` [Compound 5049, (cis-5-amino-1,3-dioxan-2-yl)((S)-1-(4-fluorophenyl)-3,4-dihydroisoquinolin-2(1H)-yl)methanone] was 6.59.

The EC50 is the concentration at which the effect is half-maximal. Broadly, the pEC50 is the negative decadic logarithm of the EC50, by convention in mol/L.
